pIC50: −log10 of the molar value.
Test system: PDC 899932-113-R3-J6 complex spheroid viability
Assay: Anticancer human tumor 899932-113-R3-J6-PDC patient-derived melanoma cell line growth inhibition [RAS]
Conditions: for pIC50: curve of first compound; for viability, T/C: stronger effect = lower value
Summary of the method: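 Agents were tested in combination matrices in half-log decrements from a top concentration at or near clinical Cmax (10 microM if undetermined). Targets were multi-cell spheroids of tumour lines plus HUVEC and MSC stromal cells.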

[1] = second compound 0.00316 µM, first compound 0.0316 µM
[2] = second compound 0.00316 µM, first compound 0.1 µM
[3] = second compound 0.00316 µM, first compound 0.316 µM
[4] = second compound 0.00316 µM, first compound 1 µM
[5] = second compound 0.00316 µM, first compound 3.16 µM
[6] = second compound 0.00316 µM, first compound 10 µM
[7] = second compound 0.01 µM, first compound 0.0316 µM
[8] = second compound 0.01 µM, first compound 0.1 µM
[9] = second compound 0.01 µM, first compound 0.316 µM
[10] = second compound 0.01 µM, first compound 1 µM
[11] = second compound 0.01 µM, first compound 3.16 µM
[12] = second compound 0.01 µM, first compound 10 µM
[13] = second compound 0.0316 µM, first compound 0.0316 µM
[14] = second compound 0.0316 µM, first compound 0.1 µM
[15] = second compound 0.0316 µM, first compound 0.316 µM
[16] = second compound 0.0316 µM, first compound 1 µM
[17] = second compound 0.0316 µM, first compound 3.16 µM
[18] = second compound 0.0316 µM, first compound 10 µM
[19] = second compound 0.1 µM, first compound 0.0316 µM
[20] = second compound 0.1 µM, first compound 0.1 µM
[21] = second compound 0.1 µM, first compound 0.316 µM
[22] = second compound 0.1 µM, first compound 1 µM
[23] = second compound 0.1 µM, first compound 3.16 µM
[24] = second compound 0.1 µM, first compound 10 µM
[25] = second compound 0.316 µM, first compound 0.0316 µM
[26] = second compound 0.316 µM, first compound 0.1 µM
[27] = second compound 0.316 µM, first compound 0.316 µM
[28] = second compound 0.316 µM, first compound 1 µM
[29] = second compound 0.316 µM, first compound 3.16 µM
[30] = second compound 0.316 µM, first compound 10 µM
[31] = second compound 1 µM, first compound 0.0316 µM
[32] = second compound 1 µM, first compound 0.1 µM
[33] = second compound 1 µM, first compound 0.316 µM
[34] = second compound 1 µM, first compound 1 µM
[35] = second compound 1 µM, first compound 3.16 µM
[36] = second compound 1 µM, first compound 10 µM
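Throughout, for viability, T/C: spheroids exposed to agents for seven days before readout; 100% = DMSO vehicle control wells.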

Work on `CCC(CC)c1cc(NC2CCC(N)C2)n2nccc2n1` (stereo unspecified) + C=CC(=O)N1CCN(c2nc(OCC3CCCN3C)nc3c(F)c(-c4nc(N)cc(C)c4C(F)(F)F)c(Cl)cc23)C(C)C1 yielded a pIC50 (second compound 0.00316 µM) of 5.81, a pIC50 (second compound 0.01 µM) of 5.76 and a pIC50 (second compound 0.0316 µM) of 5.77. It also gave a pIC50 (second compound 0.1 µM) of 5.76, a pIC50 (second compound 0.316 µM) of 5.76 and a pIC50 (second compound 1 µM) of 5.79. For the same molecule, the viability, T/C [1] was 101%, the viability, T/C [2] was 96.1% and the viability, T/C [3] was 105%. For the same molecule, the viability, T/C [4] was 79.9%, the viability, T/C [5] was 0.74% and the viability, T/C [6] was 0.24%. The viability, T/C [7] was 107%, the viability, T/C [8] was 98.1% and the viability, T/C [9] was 98.1%. The viability, T/C [10] was 93.9%, the viability, T/C [11] was 0.74% and the viability, T/C [12] was 0.62%. For the same molecule, the viability, T/C [13] was 116%, the viability, T/C [14] was 105% and the viability, T/C [15] was 99%. It also gave a viability, T/C [16] of 90%, a viability, T/C [17] of 0.75% and a viability, T/C [18] of 0.23%. For the same molecule, the viability, T/C [19] was 106%, the viability, T/C [20] was 111% and the viability, T/C [21] was 94.1%. It also gave a viability, T/C [22] of 94.1%, a viability, T/C [23] of 0.78% and a viability, T/C [24] of 1.07%. It also gave a viability, T/C [25] of 96%, a viability, T/C [26] of 99.3% and a viability, T/C [27] of 102%. It also gave a viability, T/C [28] of 93.9%, a viability, T/C [29] of 0.72% and a viability, T/C [30] of 0.84%. For the same molecule, the viability, T/C [31] was 109%, the viability, T/C [32] was 103% and the viability, T/C [33] was 98.2%. The viability, T/C [34] was 84.8%, the viability, T/C [35] was 0.86% and the viability, T/C [36] was 0.27%.

In the case of `Cc1nc(N2CCC3(CC2)COC(C)C3N)c(CO)nc1Sc1ccnc(N)c1Cl` (stereo unspecified) + C=CC(=O)N1CCN(c2nc(OCC3CCCN3C)nc3c(F)c(-c4nc(N)cc(C)c4C(F)(F)F)c(Cl)cc23)C(C)C1, the pIC50 (second compound 0.00316 µM) was under 5.00, the pIC50 (second compound 0.01 µM) was under 5.00 and the pIC50 (second compound 0.0316 µM) was under 5.00. The pIC50 (second compound 0.1 µM) was under 5.00, the pIC50 (second compound 0.316 µM) was under 5.00 and the pIC50 (second compound 1 µM) was under 5.00. The viability, T/C [1] was 110%, the viability, T/C [2] was 96.4% and the viability, T/C [3] was 102%. The viability, T/C [4] was 108%, the viability, T/C [5] was 115% and the viability, T/C [6] was 127%. For the same molecule, the viability, T/C [7] was 106%, the viability, T/C [8] was 109% and the viability, T/C [9] was 113%. For the same molecule, the viability, T/C [10] was 107%, the viability, T/C [11] was 119% and the viability, T/C [12] was 118%. The viability, T/C [13] was 99.7%, the viability, T/C [14] was 98.5% and the viability, T/C [15] was 117%. It also gave a viability, T/C [16] of 108%, a viability, T/C [17] of 120% and a viability, T/C [18] of 126%. For the same molecule, the viability, T/C [19] was 99.5%, the viability, T/C [20] was 108% and the viability, T/C [21] was 107%. It also gave a viability, T/C [22] of 113%, a viability, T/C [23] of 120% and a viability, T/C [24] of 124%. For the same molecule, the viability, T/C [25] was 126%, the viability, T/C [26] was 111% and the viability, T/C [27] was 108%. It also gave a viability, T/C [28] of 106%, a viability, T/C [29] of 108% and a viability, T/C [30] of 110%. The viability, T/C [31] was 113%, the viability, T/C [32] was 106% and the viability, T/C [33] was 114%. For the same molecule, the viability, T/C [34] was 116%, the viability, T/C [35] was 110% and the viability, T/C [36] was 114%.

In the case of `NC1c2ccccc2OC12CCN(c1cnc3c(N4CCCc5ncccc54)n[nH]c3n1)CC2` (stereo unspecified) + C=CC(=O)N1CCN(c2nc(OCC3CCCN3C)nc3c(F)c(-c4nc(N)cc(C)c4C(F)(F)F)c(Cl)cc23)C(C)C1, the pIC50 (second compound 0.00316 µM) was under 5.00, the pIC50 (second compound 0.01 µM) was under 5.00 and the pIC50 (second compound 0.0316 µM) was under 5.00. For the same molecule, the pIC50 (second compound 0.1 µM) was under 5.00, the pIC50 (second compound 0.316 µM) was under 5.00 and the pIC50 (second compound 1 µM) was under 5.00. For the same molecule, the viability, T/C [1] was 113%, the viability, T/C [2] was 107% and the viability, T/C [3] was 114%. It also gave a viability, T/C [4] of 113%, a viability, T/C [5] of 108% and a viability, T/C [6] of 89.9%. For the same molecule, the viability, T/C [7] was 108%, the viability, T/C [8] was 104% and the viability, T/C [9] was 115%. It also gave a viability, T/C [10] of 102%, a viability, T/C [11] of 115% and a viability, T/C [12] of 106%. The viability, T/C [13] was 116%, the viability, T/C [14] was 107% and the viability, T/C [15] was 115%. The viability, T/C [16] was 125%, the viability, T/C [17] was 121% and the viability, T/C [18] was 99.7%. For the same molecule, the viability, T/C [19] was 107%, the viability, T/C [20] was 106% and the viability, T/C [21] was 114%. The viability, T/C [22] was 114%, the viability, T/C [23] was 102% and the viability, T/C [24] was 104%. It also gave a viability, T/C [25] of 110%, a viability, T/C [26] of 116% and a viability, T/C [27] of 112%. For the same molecule, the viability, T/C [28] was 111%, the viability, T/C [29] was 115% and the viability, T/C [30] was 97.1%. It also gave a viability, T/C [31] of 114%, a viability, T/C [32] of 105% and a viability, T/C [33] of 119%. The viability, T/C [34] was 113%, the viability, T/C [35] was 112% and the viability, T/C [36] was 86.1%.

Reference: PubChem BioAssay AID2060895 (Molecular Pharmacology Branch, DTP, NCI, 2025)
